This note sets out measurements from patent US9603889B2, “IAP antagonists” (BRISTOL-MYERS SQUIBB COMPANY, priority 2012, dated 2017).

Structures can show the parent of a compound that is named as a salt.

The target of this experiment is XIAP BIR3 (N-His-Tb-BIR3(241-356, XIAP)) (Homo sapiens (Human), UniProt P98170). In kind it is binding. The note with it: 130 nM N-His-Tb-BIR3(241-356, XIAP), 1.4 nM fluoresceinated modified SMAC peptide, 60 minutes room temperature; read-out: XIAP BIR3 FPA IC50.
Chain of XIAP BIR3 (N-His-Tb-BIR3(241-356, XIAP)) (P98170 241-356): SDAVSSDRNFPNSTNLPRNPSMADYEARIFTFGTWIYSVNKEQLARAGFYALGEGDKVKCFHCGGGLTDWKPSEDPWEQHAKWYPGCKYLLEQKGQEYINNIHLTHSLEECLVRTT
By IC50 is commonly meant the concentration needed to halve the response being measured. As to `CN[C@@H](C)C(=O)N[C@H](C(=O)N1Cc2ccccc2CC1C(=O)N(CC1(C(=O)NC2C[C@@H](C(=O)NC3CCCc4ccccc43)N(C(=O)[C@@H](NC(=O)[C@H](C)NC)C(C)(C)C)C2)CC1)[C@@H](COC)c1ccccc1)C(C)(C)C` (stereo partly drawn) [Example 38, (S)-2-((S)-3,3-Dimethyl-2-((S)-2-(methylamino)propanamido)butanoyl)-N-((1-(((3S,5S)-1-((S)-3,3-dimethyl-2-((S)-2-(methylamino)propanamido)butanoyl)-5-(((R)-1,2,3,4-tetrahydronaphthalen-1-yl)carbamoyl)pyrrolidin-3-yl)carbamoyl)cyclopropyl)methyl)-N-((S)-2-methoxy-1-phenylethyl)-1,2,3,4-tetrahydroisoquinoline-3-carboxamide, 2 TFA], the IC50 is 60 nM.

For the molecule `CN[C@@H](C)C(=O)N[C@H](C(=O)N1C[C@@H](NC(=O)CCCN(C(=O)[C@@H]2Cc3ccccc3CN2C(=O)[C@@H](NC(=O)[C@H](C)NC)C(C)(C)C)[C@H](C)c2ccccc2F)C[C@H]1C(=O)N[C@@H]1CCCc2ccccc21)C(C)(C)C` [Example 41, (S)-2-((S)-3,3-Dimethyl-2-((S)-2-(methylamino)propanamido)butanoyl)-N-(4-(((3S,5S)-1-((S)-3,3-dimethyl-2-((S)-2-(methylamino)propanamido)butanoyl)-5-(((R)-1,2,3,4-tetrahydronaphthalen-1-yl)carbamoyl)pyrrolidin-3-yl)amino)-4-oxobutyl)-N-((R)-1-(2-fluorophenyl)ethyl)-1,2,3,4-tetrahydroisoquinoline-3-carboxamide], the IC50 amounted to 60 nM.

For `CN[C@@H](C)C(=O)N[C@H](C(=O)N1CC(NC(=O)C2CC2CN(C(=O)[C@@H]2Cc3ccccc3CN2C(=O)[C@@H](NC(=O)[C@H](C)NC)C(C)(C)C)[C@H](C)c2ccccc2F)C[C@H]1C(=O)NC1CCCc2ccccc21)C(C)(C)C` (stereo partly drawn) [Example 42, (3S)-2-((S)-3,3-Dimethyl-2-((S)-2-(methylamino)propanamido)butanoyl)-N-((2-(((3S,5S)-1-((S)-3,3-dimethyl-2-((S)-2-(methylamino)propanamido)butanoyl)-5-(((R)-1,2,3,4-tetrahydronaphthalen-1-yl)carbamoyl)pyrrolidin-3-yl)carbamoyl)cyclopropyl)methyl)-N-((R)-1-(2-fluorophenyl)ethyl)-1,2,3,4-tetrahydroisoquinoline-3-carboxamide], the IC50 worked out at 70 nM.

Consider `CN[C@@H](C)C(=O)N[C@H](C(=O)N1C[C@@H](NC(=O)C2(CN(C(=O)[C@@H]3Cc4ccccc4CN3C(=O)[C@@H](NC(=O)[C@H](C)NC)C(C)(C)C)[C@H](C)c3cccc(F)c3F)CC2)C[C@H]1C(=O)N[C@@H]1CCCc2ccccc21)C(C)(C)C` [Example 43, (S)-N-((R)-1-(2,3-Difluorophenyl)ethyl)-2-((S)-3,3-dimethyl-2-((S)-2-(methylamino)propanamido)butanoyl)-N-((1-(((3S,5S)-1-((S)-3,3-dimethyl-2-((S)-2-(methylamino)propanamido)butanoyl)-5-(((R)-1,2,3,4-tetrahydronaphthalen-1-yl)carbamoyl)pyrrolidin-3-yl)carbamoyl)cyclopropyl)methyl)-1,2,3,4-tetrahydroisoquinoline-3-carboxamide], for which the IC50 amounted to 180 nM.
